Residues, ends and D or L forms follow the SMILES beside them. *: point of attachment. N4 = 6-(carboxy)-1,4,8,11-tetraazaundecane chelator, NCCNCC(CNCCN)C(=O)*; Butanoyl(4-(4-MePh)) = Cc1ccc(CCCC(=O)*)cc1; X1 = NCCNCC(CNCCN)C(=O)*
Assays:
human NTS1R = biological target: T1, human NTS1R (Homo sapiens, UniProt P30989); assay: Competition binding against [125I]I-Tyr3-NT in WiDr cell membrane homogenates; details: WiDr cell membranes, 1 h at 22 °C, mean ± sd; read-out: IC50, [125I]I-Tyr3-NT displacement from NTS1R binding sites
T1 construct: freshly prepared membrane homogenates of human colon adenocarcinoma WiDr cells; endogenous in cells; host or cells: WiDr human colon adenocarcinoma cells (membrane homogenates)
Experimental: Aliquots of the cell membrane homogenates from WiDr cells (collected and stored at −80 °C in Tris/EDTA:10 mM of Tris, 0.1 mM of EDTA, pH 7.4) were thawed, combined and diluted in cold BB. In RIA tubes in triplicate, the test peptide (30 µL) of each concentration point, radioligand (70 µL) and membrane homogenate (200 µL) were consecutively added and thoroughly vortexed. Samples were placed for 1 h in the Incubator-Orbital Shaker (MPM Instr. Srl; Bernareggio, Italy) at 22 °C under constant steering. […] The samples were aspirated, and individual filters corresponding to each tube were collected in separate plastic tubes and measured for radioactivity on the γ-counter. Inhibition curves were plotted and the half maximal inhibitory concentration (IC50) values were calculated by applying a nonlinear one-site model (GraphPad Prism—6 Software, San Diego, CA, USA). The results for each compound are given as the average IC50 values ± sd of at least three independent repetitions of the experiment performed in triplicate.

AsPC-1 cells = assay: Time-dependent radioligand internalization in AsPC-1 cells; assay type: cell-based, human; details: 37 °C, at 1 h, non-specific (1 μM NT) subtracted
Experimental: The time-dependent internalization of [^99mTc]Tc-DT10/11/12 was directly compared with [^99mTc]Tc-DT1 via incubation in AsPC-1 cells at 37 °C for 15 min, 30 min, 1 h and 2 h. The cells were seeded in 6-well plates (1 × 10^6 per well) and left in the incubator overnight. The next day, the cells were washed twice with ice-cold internalization medium (IM, RPMI supplemented with 1% FBS). The plates were placed on the bench and the following solutions were successively added per well: warm IM (1200 µL at 37 °C), radioligand (250 fmol in 150 µL of IM) and either IM (150 µL; 3 upper wells: total series) or NT (10^−5 M in IM, 3 bottom wells: non-specific series). The plates were placed in the incubator at 37 °C and, at the predetermined time points, were retrieved and placed on ice. […] The three fractions collected per well in separate RIA tubes (supernatant, MB and internalized) were measured for their radioactivity content on the γ-counter. The radioactivity of each fraction was then assessed as a percentage of the initial activity added per well. By subtracting the non-specific fractions from the respective total fractions, the specific MB and internalization fractions could be determined. […] The results were expressed as mean ± sd.

albumin = albumin (Bos taurus, UniProt P02769); assay type: in vitro ADME, bovine
Experimental: The binding of the new [^99mTc]Tc-DT10/11/12 and the [^99mTc]Tc-DT1 reference to albumin was compared via the incubation of radioligands in BSA-treated 6-well plates. Accordingly, HEPES-buffered saline (150 mM of NaCl, 20 mM of HEPES, pH 7.4) supplemented with 0.5% w/v BSA (1200 µL of HBS-BSA) was added to each well, followed by the radioligand (250 fmol peptide, in 150 µL of HBS) and either HBS-BSA (150 µL, total binding) or Ibuprofen (22.2 mg/mL in HBS, 150 µL), to reach a total final volume of 1.5 mL. The plates were incubated in triplicate at 37 °C for 30 min in the incubator. Next, the supernatants were discarded and the wells were treated with 1 M NaOH (2 × 600 µL). The lysates were combined and collected in RIA tubes for radioactivity measurement on the γ-counter. Binding to albumin was calculated as a percentage of the measured activity vs. the activity originally added per well. The experiments were performed at least three times in triplicate and the results represent the average binding to albumin ± sd.

T1 sequence (P30989 whole entry): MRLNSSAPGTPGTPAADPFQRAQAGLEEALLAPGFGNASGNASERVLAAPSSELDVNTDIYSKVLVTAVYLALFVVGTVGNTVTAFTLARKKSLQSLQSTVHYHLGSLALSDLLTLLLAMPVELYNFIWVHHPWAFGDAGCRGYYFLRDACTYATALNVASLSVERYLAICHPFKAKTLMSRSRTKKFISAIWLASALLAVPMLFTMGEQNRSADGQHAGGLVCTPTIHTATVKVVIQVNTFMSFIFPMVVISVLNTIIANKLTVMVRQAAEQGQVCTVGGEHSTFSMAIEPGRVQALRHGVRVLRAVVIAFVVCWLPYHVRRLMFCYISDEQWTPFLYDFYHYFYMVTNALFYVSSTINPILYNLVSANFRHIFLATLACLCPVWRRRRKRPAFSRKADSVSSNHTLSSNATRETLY
Chain of albumin (P02769 25-607): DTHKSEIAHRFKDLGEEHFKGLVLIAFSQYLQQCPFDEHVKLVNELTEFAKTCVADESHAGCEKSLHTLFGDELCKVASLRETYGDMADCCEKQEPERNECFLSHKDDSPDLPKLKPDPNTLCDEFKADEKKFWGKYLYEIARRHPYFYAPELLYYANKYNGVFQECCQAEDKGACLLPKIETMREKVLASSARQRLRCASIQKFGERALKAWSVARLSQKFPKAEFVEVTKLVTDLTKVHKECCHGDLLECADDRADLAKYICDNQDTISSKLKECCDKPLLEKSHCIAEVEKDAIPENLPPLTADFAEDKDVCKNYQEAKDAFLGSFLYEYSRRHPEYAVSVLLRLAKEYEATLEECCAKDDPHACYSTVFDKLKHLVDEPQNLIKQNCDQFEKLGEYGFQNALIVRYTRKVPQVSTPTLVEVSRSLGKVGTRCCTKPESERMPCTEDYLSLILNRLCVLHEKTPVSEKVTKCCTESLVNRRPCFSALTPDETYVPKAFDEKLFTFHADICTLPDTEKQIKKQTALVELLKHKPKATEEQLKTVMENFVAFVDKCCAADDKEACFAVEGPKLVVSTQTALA

Molecule: CC[C@H](C)[C@H](NC(=O)[C@H](Cc1ccc(O)cc1)NC(=O)[C@@H]1CCCN1C(=O)[C@H](CCCNC(=N)N)NC(=O)[C@H](CCCNC(=N)N)NC(=O)CNC(=O)C(CNCCN)CNCCN)C(=O)N[C@@H](CC(C)C)C(=O)O [DT1, N4-Gly-Arg-Arg-Pro-Tyr-Ile-Leu-OH] (X1-GRRPYIL-OH)
- IC50 (human NTS1R): 0.14 ± 0.01 nM

Molecule: CC[C@H](C)[C@H](NC(=O)[C@H](Cc1ccc(O)cc1)NC(=O)[C@@H]1CCCN1C(=O)[C@H](CCCNC(=N)N)NC(=O)[C@H](CCCNC(=N)N)NC(=O)[C@H](CCCCNC(=O)CCCc1ccc(C)cc1)NC(=O)C(CNCCN)CNCCN)C(=O)N[C@@H](CC(C)C)C(=O)O [DT10] (X1-K(Butanoyl(4-(4-MePh)))RRPYIL-OH)
- IC50 (human NTS1R): 0.06 ± 0.03 nM

Molecule: [^99mTc]Tc-DT1: Tc-99m labeled DT1 (N4-Gly-Arg-Arg-Pro-Tyr-Ile-Leu-OH), unmodified reference radioligand (N4-GRRPYIL-OH; also: 99mTc complexed by N4 chelator)
- specific internalization (AsPC-1 cells): 15.1 ± 2.3%
- binding to albumin (albumin): < 1.0%

— publication PMC10647616, “Side-Chain Modified [^99mTc]Tc-DT1 Mimics: A Comparative Study in NTS1R-Positive Models” (International Journal of Molecular Sciences, 2023)
